The source of these data is patent publication US10696611B2, “Adamantane derivative compound” (AMOREPACIFIC CORPORATION, priority 2014, dated 2020).

The target of one assay is T1, androgen receptor (AR) (Homo sapiens, UniProt P10275, T878A).
T1 construct: wild type androgen receptor (AR) is obtained by isolating cytoplasm fraction from LNCaP cell line; host or cells: LNCaP cytoplasm fraction
T1 sequence (P10275 1-920 T878A): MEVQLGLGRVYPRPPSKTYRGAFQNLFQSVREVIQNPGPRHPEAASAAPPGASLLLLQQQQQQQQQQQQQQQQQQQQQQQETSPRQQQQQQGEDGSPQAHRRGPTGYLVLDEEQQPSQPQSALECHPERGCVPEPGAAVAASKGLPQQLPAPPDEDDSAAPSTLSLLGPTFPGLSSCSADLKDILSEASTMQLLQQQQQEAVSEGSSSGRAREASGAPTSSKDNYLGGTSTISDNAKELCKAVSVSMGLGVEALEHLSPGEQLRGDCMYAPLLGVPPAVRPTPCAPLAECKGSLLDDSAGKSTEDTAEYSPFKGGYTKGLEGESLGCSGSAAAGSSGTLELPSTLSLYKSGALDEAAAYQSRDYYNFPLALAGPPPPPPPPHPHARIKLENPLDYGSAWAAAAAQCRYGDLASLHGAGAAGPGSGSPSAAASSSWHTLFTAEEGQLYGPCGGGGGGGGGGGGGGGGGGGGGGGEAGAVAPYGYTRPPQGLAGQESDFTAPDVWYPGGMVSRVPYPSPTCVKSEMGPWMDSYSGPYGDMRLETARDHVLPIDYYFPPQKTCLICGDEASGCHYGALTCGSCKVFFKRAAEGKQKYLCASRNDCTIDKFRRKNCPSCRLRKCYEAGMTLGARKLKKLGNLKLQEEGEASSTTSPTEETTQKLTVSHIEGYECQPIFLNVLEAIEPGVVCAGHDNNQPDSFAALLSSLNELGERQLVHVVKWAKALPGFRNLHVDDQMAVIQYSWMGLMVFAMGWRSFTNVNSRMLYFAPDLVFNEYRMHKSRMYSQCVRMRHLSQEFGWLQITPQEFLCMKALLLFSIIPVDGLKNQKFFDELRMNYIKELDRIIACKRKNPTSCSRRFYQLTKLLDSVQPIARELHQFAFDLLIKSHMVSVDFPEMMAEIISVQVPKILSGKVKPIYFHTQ
The experiment in a line: competitive steroid binding assay ([3H] methyltrienolone displacement). The protocol: This assay determines whether or not the adamantane derivative according to the present disclosure is bound to androgen receptor (AR) competitively with methyltrienolone, which is an agonist to androgen receptor.
Such competitive steroid binding assay is carried out by introducing tritium-labeled methyltrienolone as a ligand for androgen receptor, introducing test samples non-labeled with radio isotope thereto at a different concentration, and checking whether or not the test samples are bound to androgen receptor competitively with the ligand, methyltrienolone. In this manner, the test samples are evaluated for their anti-androgenic effects. Herein, the level of the remaining isotope, tritium, is measured to determine whether or not the test samples are bound to androgen receptor competitively with the ligand, methyltrienolone.
Particularly, wild type androgen receptor (AR) is obtained by isolating cytoplasm fraction from LNCaP cell line (ATCC® CRL-1740™). […] The reaction is carried out at 4° C. for 24 hours and the reaction mixture is filtered and washed. Then, radio activity is measured in each ligand bound to the receptor.

The subject of assay [1] is Rat-derived follicle dermal papilla cells. The assay is described as follows: growth of dermal papilla cells (MTT). It is filed as cell-based. The settings on record: 10 μg/ml, 48 hours, MTT absorbance at 570 nm relative to DMSO control (100), read-out: Ratio (%) of growth of dermal papilla cells. The protocol: Rat-derived follicle dermal papilla cells cultured in Dulbecco's modified Eagle's media (DMEM) containing 2% of fetal bovine serum are dispensed to a 96-well microtiter plate to 1,000 cells/well. As positive control, minoxidil diluted to a concentration of 10 μg/ml is added. Each of the adamantane derivatives according to Examples 1-10 diluted to a concentration of 10 μg/ml is added, followed by culturing at 37° C. for 48 hours. After culturing, 0.2% 3-[4,5-dimethylthiazol-2-yl]-2,5-diphenyltetrazolium bromide (MTT) solution is added to each well in an amount of 50 μl, followed by culturing at 37° C. for 4 hours. Then, the produced formazane is dissolved with dimethyl sulfoxide (DMSO). A microplate reader is used to determine the absorbance of the dissolved formazane at 570 nm. The absorbance is compared with the absorbance of control treated with DMSO solution alone and the ratio (%) of growth of dermal papilla cells is evaluated based on the relative difference.

Another assay has as its system mice. The assay is described as follows: effect of stimulating hair growth in dehaired mice. Format: in vivo. The settings on record: 1.0 wt % in water/ethanol/1,3-butylene glycol, 150 μl/day applied on back for 21 days; newly grown hair. Here is the method:
To evaluate the adamantane derivatives according to the present disclosure for the effect of stimulating hair growth, each of the adamantane derivatives according to Examples 1-10 is dissolved into a solvent including water/ethanol/1,3-butylene glycol (5/3/2) to a concentration of 1.0 wt %. Next, mice 47-53 days after the birth are dehaired on their backs. Then, mice whose skins on the back portions are clear are selected and grouped by 8 mice per group. Each adamantane derivative having a concentration of 1.0 wt % is applied to each mouse every day in an amount of 150 μl/day for 21 days. After 21 days, newly grown hair is weighed and the weight is compared with negative control.

Assay [2] concerns male and female subjects suffering from excessive secretion of sebum. The experiment in a line: effect of inhibiting secretion of sebum (Sebumeter SM810). Format: in vivo. To be noted: nourishing cream including the compound applied every day. The protocol: The following test is carried out to evaluate the adamantane derivatives according to Examples 1-10 for the effect of inhibiting secretion of sebum. Twenty male and female subjects suffering from excessive secretion of sebum are selected and allowed to apply nourishing cream including each of Examples 1-10 and nourishing cream of negative control every day at a predetermined site for 4 weeks. Then, Sebumeter SM810 (C&K Electronic Co., Germany) is used to determine the average ratio (%) of decrease in sebum after 2 weeks and 4 weeks.

Where [3] appears, read: wild type AR from LNCaP cytoplasm fraction, [3H] methyltrienolone, 4° C. for 24 hours.

The structures appear in SMILES notation. pIC50: −log10 of the molar value. Like-named read-outs stand apart in the source and are kept apart here.

`N#Cc1ccc(NC(=O)C23CC4CC(CC(C4)C2)C3)cc1C(F)(F)F` [Comp. Ex. 1, Adamantan-1-carboxylic acid-(4-cyano-3-trifluoro-phenyl)amide, reference compound] gave a negative logarithm of the IC50 (pIC50) at androgen receptor (AR) of 4.94. The activity at 10 µg/mL in assay [1] worked out at 114%. For the same compound, the “Hair weight” value with mice came to 59 ± 12 mg. In addition, in assay [2], the “Ratio (%) of decrease in sebum After 2 weeks” value is recorded as 16.5% and the “Ratio (%) of decrease in sebum After 4 weeks” value worked out at 26.2%.
As to `Cc1cc(NC(=O)C23CC4CC(CC(C4)C2)C3)ccc1[N+](=O)[O-]` [Example 1, Adamantan-1-carboxylic acid-(3-methyl-4-nitrophenyl)-amide], at androgen receptor (AR) (setting [3]), the pIC50 was 5.92. In addition, the activity at 10 µg/mL in assay [1] was determined as 124%. In the assay with mice, the “Hair weight” value was determined as 77 ± 11 mg. Moreover, in assay [2], the “Ratio (%) of decrease in sebum After 2 weeks” value came out at 21.5% and the “Ratio (%) of decrease in sebum After 4 weeks” value came out at 35.2%.
The like results for `COc1cc(NC(=O)C23CC4CC(CC(C4)C2)C3)ccc1[N+](=O)[O-]` [Example 2, Adamantan-1-carboxylic acid-(3-methoxy-4-nitrophenyl)-amide] were, in that order, 6.62, 124%, 74 ± 9 mg, 19.4% and 28.8%.
The like results for `O=C(Nc1ccc([N+](=O)[O-])c(Cl)c1)C12CC3CC(CC(C3)C1)C2` [Example 3, Adamantan-1-carboxylic acid-(3-chloro-4-nitrophenyl)-amide] were, in that order, 6.36, 118%, 72 ± 6 mg, 18.1% and 27.6%.
`O=C(Nc1ccc([N+](=O)[O-])cc1Cl)C12CC3CC(CC(C3)C1)C2` [Example 4, Adamantan-1-carboxylic acid-(2-chloro-4-nitrophenyl)-amide] gave a negative-log IC50 (pIC50) at androgen receptor (AR) (setting [3]) of 5.85. Moreover, in assay [1], the activity at 10 µg/mL was 130%. Moreover, the “Hair weight” value in the assay with mice worked out at 75 ± 10 mg. In assay [2], the “Ratio (%) of decrease in sebum After 2 weeks” value was 20.7% and the “Ratio (%) of decrease in sebum After 4 weeks” value is on record as 29.7%.
With `COc1cc(NC(=O)C23CC4CC(CC(C4)C2)C3)ccc1C#N` [Example 5, Adamantan-1-carboxylic acid-(4-cyano-3-methoxy-phenyl)-amide], the negative logarithm of the IC50 (pIC50) on androgen receptor (AR) (setting [3]) is 5.66. In addition, the activity at 10 µg/mL in assay [1] came out at 145%. The “Hair weight” value in the assay with mice was determined as 71 ± 14 mg. Also, in assay [2], the “Ratio (%) of decrease in sebum After 2 weeks” value stood at 18.7% and the “Ratio (%) of decrease in sebum After 4 weeks” value was determined as 32.8%.
The matching figures for `N#Cc1ccc(NC(=O)C23CC4CC(CC(C4)C2)C3)c(Cl)c1` [Example 6, Adamantan-1-carboxylic acid-(4-cyano-2-chloro-phenyl)-amide]: 5.62, 124%, 67 ± 12 mg, 17.4% and 31.4%.
Consider `Cc1cc(C(=O)NC23CC4CC(CC(C4)C2)C3)ccc1[N+](=O)[O-]` [Example 7], for which the pIC50 at androgen receptor (AR) (setting [3]) is 5.72. Also, the activity at 10 µg/mL in assay [1] is 123%. In addition, the “Hair weight” value in the assay with mice was determined as 68 ± 8 mg. Moreover, in assay [2], the “Ratio (%) of decrease in sebum After 2 weeks” value amounted to 18.1% and the “Ratio (%) of decrease in sebum After 4 weeks” value came to 29.8%.
The matching figures for `COc1cc(C(=O)NC23CC4CC(CC(C4)C2)C3)ccc1[N+](=O)[O-]` [Example 8]: 6.13, 125%, 70 ± 14 mg, 19.8% and 33.7%.
At androgen receptor (AR) (setting [3]), `COc1cc(NC(=O)C23CC4CC(CC(C4)C2)C3)ccc1F` [Example 17, Adamantan-1-carboxylic Acid (4-fluoro-3-methoxyphenyl)amide] showed a pIC50 of 4.83.
Same read-out and setting: for `COc1cc(NC(=O)C23CC4CC(CC(C4)C2)C3)ccc1Br` [Example 19, Adamantan-1-carboxylic Acid (4-bromo-3-methoxyphenyl)amide] the value was 5.28; for `O=C(Nc1cccc([N+](=O)[O-])c1)C12CC3CC(CC(C3)C1)C2` [Example 23, Adamantan-1-carboxylic Acid (3-nitrophenyl)amide], 4.87; for `COc1cc([N+](=O)[O-])ccc1NC(=O)C12CC3CC(CC(C3)C1)C2` [Example 25, Adamantan-1-carboxylic Acid (2-methoxy-4-nitrophenyl)amide], 5.92.
As for `Nc1cc(N2CCCCC2)nc(N)[n+]1[O-]` [minoxidil, reference compound], the activity at 10 µg/mL in assay [1] was determined as 120%.

The term pIC50 denotes the negative decadic logarithm of the IC50, by convention in mol/L. Read a high pIC50 as a low IC50.
